The text below walks through data of US20120027741A1 (priority 2009, published 2012).

Holding throughout (type): in vivo
For test [1], the system named is Phytophthora infestans. Kind of test: whole plant or invertebrate. The following applies: tomatoes, 3 days after inoculation; for pest or weed control at 0.125 ppm: 0.125 ppm a.i.; for pest or weed control at 0.5 ppm: 0.5 ppm a.i.
Test [2] relates to Sphaerotheca fuliginea. Nature of the test: Sphaerotheca test (cucumbers)/protective. Particulars: Podosphaera fuliginea, 168 h, 7 days after inoculation, read-out: Efficacy in % found. The protocol: Sphaerotheca Test (Cucumbers)/Protective
(§1) Solvent: • 24,5 parts by weight of acetone • 24,5 parts by weight of dimethylacetamide
(§2) Emulsifier: • 1 part by weight of alkylaryl polyglycol ether
(§3) To produce a suitable preparation of active compound, 1 part by weight of active compound is mixed with the stated amounts of solvent and emulsifier, and the concentrate is diluted with water to the desired concentration.
To test for protect activity, young plants are sprayed with the preparation of active compound at the stated rate of application. After the spray coating has dried on, the plants are inoculated with to an aqueous spore suspension of Sphaerotheca fuliginea. The plants are then placed in a greenhouse at approximately 23° C. and a relative atmospheric humidity of approximately 70%.
The test is evaluated 7 days after the inoculation. 0% means an efficacy which corresponds to that of the control, while an efficacy of 100% means that no disease is observed.

Test [3] relates to Botrytis cinerea. Kind of test: Botrytis test (beans)/protective. Particulars: 48 h, 2 days after inoculation, read-out: Efficacy in % found. On the procedure:
Botrytis Test (Beans)/Protective
as §1, §2, §3
To test for protective activity, young plants are sprayed with the preparation of active compound. After the spray coating has dried on, 2 small pieces of agar covered with growth of Botrytis cinerea are placed on each leaf. The inoculated plants are placed in a darkened chamber at 20° C. and a relative atmospheric humidity of 100%.
2 days after the inoculation, the size of the lesions on the leaves is evaluated. 0% means an efficacy which corresponds to that of the control, while an efficacy of 100% means that no disease is observed.

For test [4], the system named is Pythium ultimum. Nature of the test: Pythium test (cotton)/seed treatment. The following applies: emerged seedlings after 7 days. On the procedure:
Pythium Test (Cotton)/Seed Treatment
The test is performed under greenhouse conditions.
Cotton seeds, treated with the active compound or compound combinations, solved in N-methyl-2-pyrrolidon and diluted with water to the desired dosages, were sown in 6*6 cm pots containing 4 cm of a 1:1 mix of steamed field soil and sand.
Perlite was incubated with mycelium fragments of Pythium ultimum. 1 ml of infected perlite was scattered between the treated cotton seeds. Seeds were then covered by light expanded clay aggregate. Pots were incubated in the greenhouse 7 days at 20° C. and 80% relative humidity.
Assessment consisted of counting of emerged seedlings. 0% means an efficacy which to corresponds to that of the control, while an efficacy of 100% means that all seedlings have emerged.

Setting [5] is: Phytophthora infestans, 72 h, read-out: Efficacy in % found, Table 3.

The structures appear in SMILES notation. Where two headings read alike, the source gives them in different places.

Consider `C#CCCOC(=O)Nc1cccc(CO/N=C(/c2ccccc2)c2nnnn2C)n1` [Ex. A, but-3-yn-1-yl {6-[({[(Z)-(1-methyl-1H-tetrazol-5-yl)(phenyl)methylene]amino}oxy)methyl]pyridin-2-yl}carbamate], for which, in test [1] (Phytophthora infestans, 72 h, read-out: Efficacy in % found, Table 1, 0.1 ppm a.i.), the pest or weed control at 0.1 ppm stood at 7%. In addition, the pest or weed control at 0.2 ppm in test [1] (Phytophthora infestans, 72 h, read-out: Efficacy in % found, Table 1, 0.2 ppm a.i.) amounted to 23%. Besides, the pest or weed control at 0.4 ppm worked out at 16% in test [1] (Phytophthora infestans, 72 h, read-out: Efficacy in % found, Table 1, 0.4 ppm a.i.) and 55% in test [1] (Phytophthora infestans, 72 h, read-out: Efficacy in % found, Table 4, 0.4 ppm a.i.). For the same compound, the pest or weed control at 0.125 ppm in test [1] (Phytophthora infestans, 72 h, read-out: Efficacy in % found, Table 2) amounted to 20%; in test [1] (setting [5]) it was 35%; in test [1] (Phytophthora infestans, 72 h, read-out: Efficacy in % found, Table 6), 58%. Besides, the pest or weed control at 0.5 ppm in test [1] (setting [5]) is 74%; in test [1] (Phytophthora infestans, 72 h, read-out: Efficacy in % found, Table 5), 70%. Besides, the pest or weed control at 25 ppm in test [2] (Table 7, 25 ppm a.i.) turned out to be 13%; in test [3] (Table 9, 25 ppm a.i.) it was 15%. In addition, the pest or weed control at 50 ppm in test [2] (Table 7, 50 ppm a.i.) is 13%; in test [3] (Table 9, 50 ppm a.i.) it was 40%; in test [3] (Table 10, 50 ppm a.i.) it was 0%. Further, the pest or weed control at 100 ppm in test [2] (Table 7, 100 ppm a.i.) amounted to 13%; in test [2] (Table 8, 100 ppm a.i.) it was 0%. Also, the “Efficacy in % found” value in test [4] (Table 11, 0.1 g a.i./dt) was 30%.

For `C#CCOc1ccc(CCNC(=O)C(OCC#C)c2ccc(Cl)cc2)cc1OC` (stereo not shown) [mandipropamid], the “Efficacy in % found” value in test [1] (Table 1, 0.4 ppm a.i.) is given as 84%; in test [4] (Table 11, 10 g a.i./dt), 0%.
